# Patent US20170232083A1, “METHODS OF DIAGNOSIS AND TREATMENT OF CELIAC DISEASE IN CHILDREN” (priority 2014, published 2017)
# Several values for one entry are separate records, joined by “and”; a condition that tells them apart may be missing. Equal values may be shown once. Non-standard residues stand in square brackets, D forms with d. pGlu = O=C1CC[C@@H](C(=O)O)N1
# System: peripheral blood mononuclear cells obtained from children
# Assay: IFNγ ELISpot PBMC assay after oral wheat bread challenge (Examples 1-2)
# Assay type: cell-based, human
# Method: An oral wheat bread challenge was conducted in DQ2.5+ children and adolescents having Celiac disease. The age ranges were 3-5, 6-10 and 11-18 years of age. An ELISpot peripheral blood mononucleated cell (PBMC) assay was performed to measure the level of IFNγ released by the PBMCs after being contacted with peptide 1, peptide 2, peptide 3, or a combination thereof. The identities of peptides 1, 2, and 3 are shown below.
# The values the rows starting from “Blank (SFU)” and ending at “Pept-1/2/3 (150)” are all spot forming unit (SFU) values. The values in the parentheses in the first column are the concentration of each peptide in micrograms that were added to the PBMCs (e.g., Pept-1 50=50 micrograms of Peptide 1, Pept-1/2/3 50=50 micrograms of each of Peptide 1, Peptide 2, and Peptide 3). Pept-1=Peptide 1, Pept-2=Peptide 2, Pept-3=Peptide 3, the amino acid identities of which are mentioned above. D-Gli=deamidated gliadin. WT-Gli=wild-type gliadin. D-Glut=deamidated gluten. WT-Glut=wild-type gluten.
# IFNγ ELISpot responses in 9 older children (11-17 yo) and 6 younger children (3-10 yo) were stimulated by the mixture of peptides 1, 2, and 3 described in Example 1 (each peptide at a concentration of 25 ug/mL) or stimulated by deamidated gliadin (100 ug/mL) after 3-day wheat challenge (r2=0.8, p<0.0001). The ELISpot responses were similar using either the peptide mixture of the deamidated gliadin (FIG. 1).
sequence,measurement,setting,value
EQPFPQPEQPFPWQP ([pGlu]QPFPQPEQPFPWQP-NH2; SMILES NC(=O)CC[C@H](NC(=O)[C@H](Cc1c[nH]c2ccccc12)NC(=O)[C@@H]1CCCN1C(=O)[C@H](Cc1ccccc1)NC(=O)[C@@H]1CCCN1C(=O)[C@H](CCC(N)=O)NC(=O)[C@H](CCC(=O)O)NC(=O)[C@@H]1CCCN1C(=O)[C@H](CCC(N)=O)NC(=O)[C@@H]1CCCN1C(=O)[C@H](Cc1ccccc1)NC(=O)[C@@H]1CCCN1C(=O)[C@H](CCC(N)=O)NC(=O)[C@@H]1CCC(=O)N1)C(=O)N1CCC[C@H]1C(N)=O) [Peptide 2],most active peptides in gliadin for children,,most active
same,"SFU, IFNγ ELISpot","Subject A, 5.0 × 10^5 cells per well, 50 micrograms, listed as Pept-2",4 SFU and 3 SFU
same,"SFU, IFNγ ELISpot","Subject A, 5.0 × 10^5 cells per well, 100 micrograms, listed as Pept-2",5 SFU and 3 SFU
same,"SFU, IFNγ ELISpot","Subject B, 5.0 × 10^5 cells per well, 25 micrograms, listed as Pept-2",4 SFU and 6 SFU
same,"SFU, IFNγ ELISpot","Subject B, 5.0 × 10^5 cells per well, 50 micrograms, listed as Pept-2",7 SFU and 8 SFU
same,"SFU, IFNγ ELISpot","Subject C, 5.0 × 10^5 cells per well, 50 micrograms",4 SFU
same,"SFU, IFNγ ELISpot","Subject D, 4.0 × 10^5 cells per well, 25 micrograms, listed as Pept-2",17 SFU and 30 SFU
same,"SFU, IFNγ ELISpot","Subject D, 4.0 × 10^5 cells per well, 50 micrograms, listed as Pept-2",29 SFU and 32 SFU
same,"SFU, IFNγ ELISpot","Subject E, 5.0 × 10^5 cells per well, 25 micrograms, listed as Pept-2",55 SFU and 45 SFU
same,"SFU, IFNγ ELISpot","Subject E, 5.0 × 10^5 cells per well, 50 micrograms, listed as Pept-2",45 SFU and 43 SFU
same,"SFU, IFNγ ELISpot","Subject E, 5.0 × 10^5 cells per well, 100 micrograms, listed as Pept-2",67 SFU and 44 SFU
same,"SFU, IFNγ ELISpot","Subject F, 5.0 × 10^5 cells per well, 25 micrograms, listed as Pept-2",44 SFU and 59 SFU
same,"SFU, IFNγ ELISpot","Subject F, 5.0 × 10^5 cells per well, 50 micrograms, listed as Pept-2",64 SFU and 105 SFU
same,"SFU, IFNγ ELISpot","Subject F, 5.0 × 10^5 cells per well, 100 micrograms, listed as Pept-2",41 SFU and 59 SFU
same,"SFU, IFNγ ELISpot","Subject G, 4.0 × 10^5 cells per well, 25 micrograms",7 SFU
same,"SFU, IFNγ ELISpot","Subject G, 4.0 × 10^5 cells per well, 100 micrograms, listed as Pept-2",5 SFU and 9 SFU
same,"SFU, IFNγ ELISpot","Subject I, 5.0 × 10^5 cells per well, 25 micrograms",7 SFU
same,"SFU, IFNγ ELISpot","Subject I, 5.0 × 10^5 cells per well, 50 micrograms, listed as Pept-2",5 SFU and 6 SFU
same,"SFU, IFNγ ELISpot","Subject J, 5.0 × 10^5 cells per well, 25 micrograms, listed as Pept-2",85 SFU and 98 SFU
same,"SFU, IFNγ ELISpot","Subject J, 5.0 × 10^5 cells per well, 50 micrograms, listed as Pept-2",107 SFU and 83 SFU
same,"SFU, IFNγ ELISpot","Subject J, 5.0 × 10^5 cells per well, 100 micrograms, listed as Pept-2",81 SFU and 90 SFU
same,"SFU, IFNγ ELISpot","Subject K, 3.2 × 10^5 cells per well, 25 micrograms, listed as Pept-2",17 SFU and 22 SFU
same,"SFU, IFNγ ELISpot","Subject K, 3.2 × 10^5 cells per well, 50 micrograms, listed as Pept-2",19 SFU and 18 SFU
same,"SFU, IFNγ ELISpot","Subject K, 3.2 × 10^5 cells per well, 100 micrograms, listed as Pept-2",23 SFU and 15 SFU
same,"SFU, IFNγ ELISpot","Subject L, 3.5 × 10^5 cells per well, 25 micrograms, listed as Pept-2",5 SFU and 4 SFU
same,"SFU, IFNγ ELISpot","Subject L, 3.5 × 10^5 cells per well, 100 micrograms, listed as Pept-2",2 SFU and 4 SFU
same,"SFU, IFNγ ELISpot","Subject M, 2.3 × 10^5 cells per well, 25 micrograms, listed as Pept-2",28 SFU and 27 SFU
same,"SFU, IFNγ ELISpot","Subject M, 2.3 × 10^5 cells per well, 50 micrograms, listed as Pept-2",26 SFU and 29 SFU
same,"SFU, IFNγ ELISpot","Subject M, 2.3 × 10^5 cells per well, 100 micrograms, listed as Pept-2",32 SFU and 24 SFU
same,"SFU, IFNγ ELISpot","Subject N, 2.4 × 10^5 cells per well, 100 micrograms, listed as Pept-2",4 SFU and 7 SFU
same,"SFU, IFNγ ELISpot","Subject P, 3.0 × 10^5 cells per well, 0.5 micrograms, listed as Pept-2",10 SFU and 8 SFU
same,"SFU, IFNγ ELISpot","Subject P, 3.0 × 10^5 cells per well, 1 micrograms, listed as Pept-2",18 SFU and 11 SFU
same,"SFU, IFNγ ELISpot","Subject P, 3.0 × 10^5 cells per well, 5 micrograms, listed as Pept-2",19 SFU and 15 SFU
same,"SFU, IFNγ ELISpot","Subject Q, 3.0 × 10^5 cells per well, 0.5 micrograms, listed as Pept-2",44 SFU and 51 SFU
same,"SFU, IFNγ ELISpot","Subject Q, 3.0 × 10^5 cells per well, 1 micrograms, listed as Pept-2",31 SFU and 41 SFU
same,"SFU, IFNγ ELISpot","Subject Q, 3.0 × 10^5 cells per well, 2.5 micrograms, listed as Pept-2",44 SFU and 51 SFU
same,"SFU, IFNγ ELISpot","Subject Q, 3.0 × 10^5 cells per well, 5 micrograms, listed as Pept-2",30 SFU
same,"SFU, IFNγ ELISpot","Subject R, 3.0 × 10^5 cells per well, 0.1 micrograms, listed as Pept-2",18 SFU and 20 SFU
same,"SFU, IFNγ ELISpot","Subject R, 3.0 × 10^5 cells per well, 0.5 micrograms, listed as Pept-2",16 SFU and 14 SFU
same,"SFU, IFNγ ELISpot","Subject R, 3.0 × 10^5 cells per well, 1 micrograms, listed as Pept-2",15 SFU and 11 SFU
same,"SFU, IFNγ ELISpot","Subject R, 3.0 × 10^5 cells per well, 5 micrograms, listed as Pept-2",16 SFU
same,"SFU, IFNγ ELISpot","Subject S, 3.0 × 10^5 cells per well, 0.5 micrograms, listed as Pept-2",2 SFU and 1 SFU
same,"SFU, IFNγ ELISpot","Subject S, 3.0 × 10^5 cells per well, 1 micrograms, listed as Pept-2",5 SFU and 3 SFU
same,"SFU, IFNγ ELISpot","Subject S, 3.0 × 10^5 cells per well, 2.5 micrograms, listed as Pept-2",2 SFU and 3 SFU
same,"SFU, IFNγ ELISpot","Subject S, 3.0 × 10^5 cells per well, 5 micrograms, listed as Pept-2",5 SFU
same,"SFU, IFNγ ELISpot","Subject T, 3.0 × 10^5 cells per well, 0.1 micrograms, listed as Pept-2",33 SFU and 47 SFU
same,"SFU, IFNγ ELISpot","Subject T, 3.0 × 10^5 cells per well, 0.5 micrograms, listed as Pept-2",34 SFU and 39 SFU
same,"SFU, IFNγ ELISpot","Subject T, 3.0 × 10^5 cells per well, 1 micrograms, listed as Pept-2",41 SFU and 51 SFU
same,"SFU, IFNγ ELISpot","Subject T, 3.0 × 10^5 cells per well, 2.5 micrograms, listed as Pept-2",49 SFU and 56 SFU
same,"SFU, IFNγ ELISpot","Subject T, 3.0 × 10^5 cells per well, 5 micrograms, listed as Pept-2",68 SFU
same,"SFU, IFNγ ELISpot","Subject U, 3.0 × 10^5 cells per well, 0.1 micrograms, listed as Pept-2",8 SFU and 6 SFU
same,"SFU, IFNγ ELISpot","Subject U, 3.0 × 10^5 cells per well, 0.5 micrograms, listed as Pept-2",8 SFU and 12 SFU
same,"SFU, IFNγ ELISpot","Subject U, 3.0 × 10^5 cells per well, 1 micrograms, listed as Pept-2",13 SFU and 15 SFU
same,"SFU, IFNγ ELISpot","Subject U, 3.0 × 10^5 cells per well, 2.5 micrograms, listed as Pept-2",26 SFU and 33 SFU
same,"SFU, IFNγ ELISpot","Subject U, 3.0 × 10^5 cells per well, 5 micrograms, listed as Pept-2",28 SFU
same,T cell response in PBMC samples from children after gluten challenge,"general increase in SFU in each child, Tables 2-5",induce a T cell response
